Experimental data taken from patent publication US10517294B2, “Dihydrothiophene derivatives as insecticidal compounds” (priority 2012, dated 2019).

What was measured:
Assay type in all cases: in vivo
Spodoptera littoralis = Spodoptera littoralis (Egyptian cotton leaf worm), sprayed cotton leaf discs; settings: foliar, 72 h, application rate 200 ppm, L1 larvae on cotton leaf discs, 3 days after infestation, read-out: control (at least one of mortality, anti-feedant effect, growth inhibition)
Experimental: Cotton leaf discs were placed on agar in 24-well microtiter plates and sprayed with aqueous test solutions prepared from 10′000 ppm DMSO stock solutions. After drying the leaf discs were infested with five L1 larvae. The samples were assessed for mortality, anti-feedant effect, and growth inhibition 3 days after infestation. Control of Spodoptera littoralis by a test sample is noted when at least one of mortality, anti-feedant effect, and growth inhibition is better than the untreated sample.

Heliothis virescens = Heliothis virescens (tobacco budworm), eggs on artificial diet; settings: application rate 200 ppm, eggs 0-24 h old on artificial diet, 5 days after infestation, read-out: control (at least one of egg mortality, larval mortality, growth inhibition)
Experimental: Eggs (0-24 h old) were placed in 24-well microtiter plates on artificial diet and treated with aqueous test solutions prepared from 10′000 ppm DMSO stock solutions by pipetting. The samples were assessed for egg mortality, larval mortality and growth inhibition 5 days after infestation. Control of Heliothis virescens by a test sample is noted when at least one of egg mortality, larval mortality and growth inhibition is better than the untreated sample.

Plutella xylostella = Plutella xylostella (diamond back moth), artificial diet; settings: 120 h, application rate 200 ppm, L2 larvae on artificial diet, 5 days after infestation, read-out: control (at least one of mortality, growth inhibition)
Experimental: (§1) 24-well microtiter plates with artificial diet were treated with aqueous test solutions prepared from 10′000 ppm DMSO stock solutions by pipetting. After drying, the plates were infested with L2 larvae (10 to 15 per well). The samples were assessed for mortality and growth inhibition 5 days after infestation. Control of Plutella xyllostella by a test sample is noted when at least one of mortality and growth inhibition is better than the untreated sample.

Diabrotica balteata [1] = experiment: Diabrotica balteata (corn root worm), artificial diet; settings: 120 h, application rate 200 ppm, L2 larvae on artificial diet, 5 days after infestation, read-out: control (at least one of mortality, growth inhibition)
Experimental: as §1, with “(6” for “(10”, “10” for “15”, “Diabrotica balteata” for “Plutella xyllostella”

Thrips tabaci = Thrips tabaci (onion thrips), sprayed sunflower leaf discs; settings: foliar, 144 h, application rate 200 ppm, mixed ages on sunflower leaf discs, 6 days after infestation, read-out: control (mortality)
Experimental: (§2) Sunflower leaf discs were placed on agar in 24-well microtiter plates and sprayed with aqueous test solutions prepared from 10′000 ppm DMSO stock solutions. After drying the leaf discs were infested with a thrips population of mixed ages. The samples were assessed for mortality 6 days after infestation.

Tetranychus urticae = Tetranychus urticae (two-spotted spider mite), sprayed bean leaf discs; settings: foliar, 192 h, application rate 200 ppm, mixed ages on bean leaf discs, 8 days after infestation, read-out: control (mortality, mobile stages)
Experimental: as §2, with “Bean” for “Sunflower”, “discs” for “discs were placed”, “were” for “and”, “mite” for “thrips”, “(mobile stages) 8” for “6”

Euschistus heros = Euschistus heros (neotropical brown stink bug), sprayed soybean plants; settings: 120 h, application rate 50 ppm, N2 nymphs on sprayed soybean plants, 5 days after infestation, read-out: control (at least one of mortality, growth inhibition)
Experimental: Two weeks old soybean plants were sprayed in a turn table spray chamber with the diluted spray solutions. After drying 2 soybean seeds were added and plants were infested with 10 N2 nymphs of the neotropical brown stink bug Euschistus heros in plastic test boxes. The samples were assessed for mortality and growth inhibition 5 days after infestation. Control of Euschistus heros by a test sample is noted when at least one of mortality and growth inhibition is better than the untreated sample.

Diabrotica balteata [2] = experiment: Diabrotica balteata (corn root worm), sprayed maize sprouts; settings: 96 h, application rate 200 ppm, L2 larvae on sprayed maize sprouts, 4 days after infestation, read-out: control (at least one of mortality, growth inhibition)
Experimental: Maize sprouts, placed on an agar layer in 24-well microtiter plates were treated with aqueous test solutions prepared from 10′000 ppm DMSO stock solutions by spraying. After drying, the plates were infested with L2 larvae (6 to 10 per well). The samples were assessed for mortality and growth inhibition 4 days after infestation. Control of Diabrotica balteata by a test sample is noted when at least one of mortality and growth inhibition is better than the untreated sample.

Cc1cc(C2=CSC(c3cc(Cl)cc(Cl)c3)(C(F)(F)F)C2)ccc1C(=O)NCC(=O)NCC(F)(F)F (stereo not drawn) [Compound A3, 4-[2-(3,5-dichlorophenyl)-2-(trifluoromethyl)-3H-thiophen-4-yl]-2-methyl-N-[2-oxo-2-(2,2,2-trifluoroethylamino)ethyl]benzamide]
≥ 80%: percent control (mortality, anti-feedant effect or growth inhibition) at 200 ppm (Spodoptera littoralis) | mortality at 200 ppm (Heliothis virescens) | mortality at 200 ppm (Plutella xylostella) | mortality at 200 ppm (Diabrotica balteata [1]) | mortality at 200 ppm (Thrips tabaci) | mortality at 200 ppm (Tetranychus urticae) | mortality at 50 ppm (Euschistus heros)

Cc1cc(C2=CSC(c3cc(Cl)cc(Cl)c3)(C(F)(F)F)C2)ccc1C(=O)NC1CS(=O)(=O)C1 (stereo not drawn) [Compound A4, 4-[2-(3,5-dichlorophenyl)-2-(trifluoromethyl)-3H-thiophen-4-yl]-N-(1,1-dioxothietan-3-yl)-2-methyl-benzamide]
≥ 80%: percent control (mortality, anti-feedant effect or growth inhibition) at 200 ppm (Spodoptera littoralis) | mortality at 200 ppm (Heliothis virescens) | mortality at 200 ppm (Plutella xylostella) | mortality at 200 ppm (Diabrotica balteata [1]) | mortality at 200 ppm (Thrips tabaci) | mortality at 200 ppm (Tetranychus urticae) | mortality at 50 ppm (Euschistus heros)

Cc1cc(C2=CSC(c3cc(Cl)cc(Cl)c3)(C(F)(F)F)C2)ccc1C(=O)NC1CSC1 (stereo not drawn) [Compound A5, 4-[2-(3,5-dichlorophenyl)-2-(trifluoromethyl)-3H-thiophen-4-yl]-2-methyl-N-(thietan-3-yl)benzamide]
≥ 80%: percent control (mortality, anti-feedant effect or growth inhibition) at 200 ppm (Spodoptera littoralis) | mortality at 200 ppm (Heliothis virescens) | mortality at 200 ppm (Plutella xylostella) | mortality at 200 ppm (Diabrotica balteata [1]) | mortality at 200 ppm (Thrips tabaci) | mortality at 200 ppm (Tetranychus urticae) | mortality at 50 ppm (Euschistus heros)

Cc1cc(C2=CSC(c3cc(Cl)cc(Cl)c3)(C(F)(F)F)C2)ccc1C(=O)N[C@H]1C[S@@+]([O-])C1 (stereo partly drawn) [Compound A7, 4-[2-(3,5-dichlorophenyl)-2-(trifluoromethyl)-3H-thiophen-4-yl]-2-methyl-N-(1-oxidothietan-1-ium-3-yl)benzamide]
≥ 80%: percent control (mortality, anti-feedant effect or growth inhibition) at 200 ppm (Spodoptera littoralis) | mortality at 200 ppm (Heliothis virescens) | mortality at 200 ppm (Plutella xylostella) | mortality at 200 ppm (Diabrotica balteata [1]) | mortality at 200 ppm (Thrips tabaci) | mortality at 200 ppm (Tetranychus urticae) | mortality at 50 ppm (Euschistus heros)

CCN1OC[C@@H](NC(=O)c2ccc(C3=CSC(c4cc(Cl)cc(Cl)c4)(C(F)(F)F)C3)cc2C)C1=O (stereo partly drawn) [Compound A9, 4-[2-(3,5-dichlorophenyl)-2-(trifluoromethyl)-3H-thiophen-4-yl]-N-[(4R)-2-ethyl-3-oxo-isoxazolidin-4-yl]-2-methyl-benzamide]
≥ 80%: percent control (mortality, anti-feedant effect or growth inhibition) at 200 ppm (Spodoptera littoralis) | mortality at 200 ppm (Heliothis virescens) | mortality at 200 ppm (Plutella xylostella) | mortality at 200 ppm (Diabrotica balteata [1]) | mortality at 200 ppm (Thrips tabaci) | mortality at 200 ppm (Tetranychus urticae) | mortality at 50 ppm (Euschistus heros)

CCN1OC[C@@H](NC(=O)c2ccc(C3=CS[C@](c4cc(Cl)cc(Cl)c4)(C(F)(F)F)C3)cc2C)C1=O [Compound D3, 4-[(2R)-2-(3,5-dichlorophenyl)-2-(trifluoromethyl)-3H-thiophen-4-yl]-N-[(4R)-2-ethyl-3-oxo-isoxazolidin-4-yl]-2-methyl-benzamide]
≥ 80%: percent control (mortality, anti-feedant effect or growth inhibition) at 200 ppm (Spodoptera littoralis) | mortality at 200 ppm (Heliothis virescens) | mortality at 200 ppm (Plutella xylostella) | mortality at 200 ppm (Diabrotica balteata [2]) | mortality at 200 ppm (Thrips tabaci) | mortality at 200 ppm (Tetranychus urticae)

Cc1cc(C2=CS[C@](c3cc(Cl)cc(Cl)c3)(C(F)(F)F)C2)ccc1C(=O)N[C@H]1C[S@@+]([O-])C1 [Compound D4, 4-[(2R)-2-(3,5-dichlorophenyl)-2-(trifluoromethyl)-3H-thiophen-4-yl]-2-methyl-N-(1-oxothietan-3-yl)benzamide]
≥ 80%: percent control (mortality, anti-feedant effect or growth inhibition) at 200 ppm (Spodoptera littoralis) | mortality at 200 ppm (Heliothis virescens) | mortality at 200 ppm (Plutella xylostella) | mortality at 200 ppm (Diabrotica balteata [2]) | mortality at 200 ppm (Thrips tabaci) | mortality at 200 ppm (Tetranychus urticae)

CCN1OC[C@@H](NC(=O)c2ccc(C3=CS[C@@](c4cc(Cl)cc(Cl)c4)(C(F)(F)F)C3)cc2C)C1=O [Compound D7, 4-[(2S)-2-(3,5-dichlorophenyl)-2-(trifluoromethyl)-3H-thiophen-4-yl]-N-(2-ethyl-3-oxo-isoxazolidin-4-yl)-2-methyl-benzamide]
≥ 80%: percent control (mortality, anti-feedant effect or growth inhibition) at 200 ppm (Spodoptera littoralis) | mortality at 200 ppm (Plutella xylostella) | mortality at 200 ppm (Diabrotica balteata [2]) | mortality at 200 ppm (Thrips tabaci) | mortality at 200 ppm (Tetranychus urticae)

Cc1cc(C2=CS[C@@](c3cc(Cl)cc(Cl)c3)(C(F)(F)F)C2)ccc1C(=O)N[C@H]1C[S@@+]([O-])C1 [Compound D8, 4-[(2S)-2-(3,5-dichlorophenyl)-2-(trifluoromethyl)-3H-thiophen-4-yl]-2-methyl-N-(1-oxothietan-3-yl)benzamide]
≥ 80%: percent control (mortality, anti-feedant effect or growth inhibition) at 200 ppm (Spodoptera littoralis) | mortality at 200 ppm (Plutella xylostella) | mortality at 200 ppm (Diabrotica balteata [2]) | mortality at 200 ppm (Thrips tabaci) | mortality at 200 ppm (Tetranychus urticae)
